In assay [1] the target is T1, Heat shock factor protein 1 (Mus musculus, UniProt P38532).
T1 sequence (P38532 whole entry): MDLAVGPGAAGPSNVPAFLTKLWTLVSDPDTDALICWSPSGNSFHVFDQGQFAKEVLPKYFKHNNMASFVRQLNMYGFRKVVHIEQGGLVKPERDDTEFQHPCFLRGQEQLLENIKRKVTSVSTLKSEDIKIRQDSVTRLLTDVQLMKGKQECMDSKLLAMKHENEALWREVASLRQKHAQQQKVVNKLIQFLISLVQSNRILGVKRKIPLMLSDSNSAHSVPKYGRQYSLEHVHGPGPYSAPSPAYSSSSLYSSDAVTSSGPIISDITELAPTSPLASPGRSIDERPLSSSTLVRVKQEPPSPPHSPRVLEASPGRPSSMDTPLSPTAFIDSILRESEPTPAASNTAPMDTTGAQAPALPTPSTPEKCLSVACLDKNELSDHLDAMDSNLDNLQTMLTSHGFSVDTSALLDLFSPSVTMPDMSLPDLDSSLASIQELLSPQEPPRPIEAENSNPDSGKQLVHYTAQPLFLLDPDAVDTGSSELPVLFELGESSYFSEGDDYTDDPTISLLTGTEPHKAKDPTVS
Kind of assay: HSF1 potentiators in luciferase reporter cells, confirmation, cell-based, NIH3T3, luminescence, dose retest (AID 435004).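 Note: stress induced by proteasome inhibitor MG132 added 30 min after compound; luciferase reporter driven by HSF1 response element in NIH3T3 cells; actives raise luminescence as potentiators of the MG132 stress response.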 It counts as functional. A general note: Reporter assays use an easily measured gene product as a stand-in for the process of interest.

The target of assay [2] is T2, RNA-binding protein pos-1 (Caenorhabditis elegans, UniProt G5EF15).
T2 sequence (G5EF15 whole entry): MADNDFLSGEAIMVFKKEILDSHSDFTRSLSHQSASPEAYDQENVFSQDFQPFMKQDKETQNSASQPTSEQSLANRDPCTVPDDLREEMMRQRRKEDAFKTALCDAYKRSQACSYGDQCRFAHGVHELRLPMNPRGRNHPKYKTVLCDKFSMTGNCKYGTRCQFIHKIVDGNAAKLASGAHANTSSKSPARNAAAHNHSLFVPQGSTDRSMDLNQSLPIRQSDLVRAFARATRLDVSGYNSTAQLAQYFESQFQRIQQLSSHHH
Briefly: inhibitors of POS-1/mex-3 RNA binding, dose response, biochemical, fluorescence polarization (AID 1964).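 Note: purified POS-1 fused to maltose binding protein made in E. coli; potency of compounds blocking POS-1 binding to fluorescent RNA.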

For assay [3], the target named is T3, Zinc finger protein mex-5 (Caenorhabditis elegans, UniProt Q9XUB2).
T3 sequence (Q9XUB2 whole entry): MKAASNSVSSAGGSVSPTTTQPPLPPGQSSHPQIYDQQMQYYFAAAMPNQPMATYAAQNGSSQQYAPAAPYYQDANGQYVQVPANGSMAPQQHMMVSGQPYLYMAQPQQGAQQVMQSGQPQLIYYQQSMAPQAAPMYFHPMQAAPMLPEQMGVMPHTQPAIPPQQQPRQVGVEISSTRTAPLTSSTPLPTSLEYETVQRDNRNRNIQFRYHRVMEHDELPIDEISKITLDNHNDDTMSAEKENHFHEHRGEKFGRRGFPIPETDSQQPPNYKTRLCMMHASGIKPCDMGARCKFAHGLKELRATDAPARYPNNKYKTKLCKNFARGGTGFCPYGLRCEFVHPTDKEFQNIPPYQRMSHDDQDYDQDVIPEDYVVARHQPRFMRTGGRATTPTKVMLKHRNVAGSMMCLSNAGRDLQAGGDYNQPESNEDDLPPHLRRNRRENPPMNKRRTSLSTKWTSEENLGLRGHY
Kind of assay: MEX-5/TCR-2 RNA interaction inhibitors, dose response, biochemical, C. elegans, fluorescence polarization (AID 1960).

Assay [4] addresses T4, Rac GTPase-activating protein 1 (Homo sapiens, UniProt Q9H0H5).
T4 sequence (Q9H0H5 whole entry): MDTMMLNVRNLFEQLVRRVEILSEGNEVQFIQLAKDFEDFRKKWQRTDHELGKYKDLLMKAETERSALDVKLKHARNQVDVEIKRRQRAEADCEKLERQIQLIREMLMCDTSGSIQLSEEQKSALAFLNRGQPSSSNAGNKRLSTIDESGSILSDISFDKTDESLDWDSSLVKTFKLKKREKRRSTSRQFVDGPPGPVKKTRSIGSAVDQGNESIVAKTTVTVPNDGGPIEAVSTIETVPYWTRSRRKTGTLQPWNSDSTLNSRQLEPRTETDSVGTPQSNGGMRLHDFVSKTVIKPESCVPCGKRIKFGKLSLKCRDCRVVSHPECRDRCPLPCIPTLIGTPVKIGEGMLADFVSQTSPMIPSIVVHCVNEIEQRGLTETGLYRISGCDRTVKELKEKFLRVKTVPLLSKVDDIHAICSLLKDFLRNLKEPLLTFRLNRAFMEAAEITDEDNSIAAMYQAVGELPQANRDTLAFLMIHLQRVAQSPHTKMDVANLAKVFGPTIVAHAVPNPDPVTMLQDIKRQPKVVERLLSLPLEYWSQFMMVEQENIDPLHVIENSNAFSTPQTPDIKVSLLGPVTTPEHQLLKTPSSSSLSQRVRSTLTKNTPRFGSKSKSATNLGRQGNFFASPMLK
Briefly: MgcRacGAP GTPase-activating activity inhibitors, confirmation, biochemical, ADP Hunter fluorescence, primary and confirmatory (AID 624330). It counts as functional.

For assay [5], the target named is T5, Corticotropin-releasing factor receptor 2/Corticotropin-releasing factor-binding protein (Homo sapiens, UniProt P24387+Q13324).
T5 sequence (Q13324 whole entry): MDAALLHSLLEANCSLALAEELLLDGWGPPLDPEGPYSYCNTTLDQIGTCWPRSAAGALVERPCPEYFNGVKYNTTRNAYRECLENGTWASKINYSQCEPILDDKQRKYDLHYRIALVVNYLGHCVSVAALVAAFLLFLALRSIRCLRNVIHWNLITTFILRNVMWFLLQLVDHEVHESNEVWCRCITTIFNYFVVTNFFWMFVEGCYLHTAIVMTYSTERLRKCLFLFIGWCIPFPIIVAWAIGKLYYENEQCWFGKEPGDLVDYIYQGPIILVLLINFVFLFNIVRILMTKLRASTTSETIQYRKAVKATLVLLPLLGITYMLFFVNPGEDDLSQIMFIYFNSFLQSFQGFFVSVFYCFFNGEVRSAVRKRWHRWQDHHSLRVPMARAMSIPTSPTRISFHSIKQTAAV
T5 sequence (P24387 whole entry): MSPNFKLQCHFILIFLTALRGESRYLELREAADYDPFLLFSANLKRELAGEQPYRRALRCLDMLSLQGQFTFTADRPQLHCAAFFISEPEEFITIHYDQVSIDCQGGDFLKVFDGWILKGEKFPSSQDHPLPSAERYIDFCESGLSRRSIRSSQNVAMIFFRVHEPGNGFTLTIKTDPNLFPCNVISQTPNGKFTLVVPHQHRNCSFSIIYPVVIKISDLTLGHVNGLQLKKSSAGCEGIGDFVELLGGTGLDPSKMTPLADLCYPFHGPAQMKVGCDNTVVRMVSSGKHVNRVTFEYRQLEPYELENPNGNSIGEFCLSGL
Kind of assay: Dose Response confirmation of uHTS hits for small molecule antagonists of the CRF-binding protein and CRF-R2 receptor complex. Type of assay: functional. The following applies: read-out: IC50_Mean.

Assay [6] addresses T5, Corticotropin-releasing factor receptor 2/Corticotropin-releasing factor-binding protein. Kind of assay: activators of CRF receptor 2 with binding protein – uHTS hits, confirmation (AID 602473). It counts as functional. The settings on record: read-out: EC50_Mean.
The nature of assay [7]: cells. Type of assay: functional, cell-based.
Assay [8] is described as follows: cells. Type of assay: functional, cell-based. This is another data set of the same source.
Assay [9] has as its target T1, Heat shock factor protein 1. Kind of assay: inhibition of MG132-induced HSE-luciferase signal, confirmation, cell-based, NIH3T3, luminescence, dose retest (AID 2382).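 Note: NIH3T3 fibroblasts with HSF1-driven luciferase reporter stressed by proteasome inhibitor MG132; luminescence from HSF1-driven luciferase expression after 8 hours of MG132 stress.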 Type of assay: functional.

The source made the active and inactive calls. Cut-off read from the data, not from the text of the source, for most assays here: actives have a measured EC50 and inactives only a lower limit.

Regarding `Cc1ccc(-c2csc(NC(=O)c3cccc([N+](=O)[O-])c3)n2)cc1`, in [1], the EC50 was > 260 µM (inactive). As for `O=C(O)C(=O)/C(=C\c1ccc(Cl)cc1)c1ccc2ccccc2n1`, the EC50 in [2] and in assay [3] was > 300 µM (not active) throughout. As for `COc1cccc(CNc2ccc3c(c2)ncn3C)c1OC`, in assay [4], the IC50 is 99.4 µM (active). In the case of `CC(=O)N1CCc2c(sc(NC(=O)C3CCCCC3)c2C(N)=O)C1`, the EC50 in assay [2] was 33.4 µM (active); in assay [3], 30.1 µM (active). As for `COc1ccc(-c2cccc(NS(=O)(=O)c3cccc([N+](=O)[O-])c3)c2)nn1`, the IC50 in assay [5] is > 47.1 µM (inactive). The EC50 in [6] is > 53 µM (inactive). With `O=C(NN1C(=O)c2ccccc2NC1c1ccccn1)c1ccc([N+](=O)[O-])cc1` (configuration not stated), the EC50 in assay [2] is 198 µM (active); in [3] it was 8.55 µM (active).

Turning to `c1ccc(-c2nc(CSc3n[nH]c(-c4cccs4)n3)cs2)cc1`, the EC50 in assay [1] is > 260 µM (inactive). In the case of `COc1cc(-c2nnc(CSc3nnc(Nc4ccc(C(C)C)cc4)s3)o2)cc(OC)c1OC`, the EC50 in [1] was 31.8 µM (active). As to `Cc1nnc(-c2ccccc2)nc1N(C)C`, the EC50 in “cells [7]” and in the assay “cells [8]” was > 350 µM (not active) in each case.

With `Cc1ccc(OCc2ccc(C#N)cc2)c(C(=O)c2cc(C#N)c(=O)n(C3CC3)c2)c1`, in assay [1], the EC50 is > 260 µM (inactive). As for `COC(=O)c1ccccc1-n1cccc1C(=O)NP(=O)(N1CCOCC1)N1CCOCC1`, the EC50 in assay [2] and in [3] was > 300 µM (not active) in each case. `CCCCn1c(N)c(N(CC(C)C)C(=O)C2CCN(S(=O)(=O)c3ccc(C)c(C)c3)CC2)c(=O)[nH]c1=O`: the EC50 in assay [1] is > 260 µM (inactive). Regarding `N=c1c(C(=O)NC2CCCC2)cc2c(=O)n3ccccc3nc2n1Cc1ccccc1`, the results for the EC50 in assay [9], in assay [2] and in assay [3] were > 195 µM (not active), 31.6 µM (active) and 41.3 µM (active), respectively.

Take `Cc1ccc(N=C2NC(=O)CS2)cc1`: the EC50 in assay [1] is > 260 µM (inactive). For `CN(c1ccc(O)cc1)c1nc(-c2cccs2)cs1`, the IC50 in [4] is 70.4 µM (active). For the molecule `O=C(O)C1=C[C@@H](c2ccc(Br)cc2)C[C@@H](OCc2ccc(CO)cc2)O1`, the IC50 in [5] was > 47.1 µM (inactive). Besides, in [6], the EC50 was > 53 µM (inactive).

For the molecule `Cn1c(CCNC(=O)c2ccco2)nc2cc(NC(=O)c3ccco3)ccc21`, the IC50 in [5] was > 47.1 µM (inactive). The EC50 in assay [6] is > 53 µM (inactive).

For the molecule `CC1(C)CC2CC(C)(CN2/C=C2/CCCCC2=O)C1` (configuration not stated), the IC50 in [5] is > 47.1 µM (inactive). In addition, the EC50 in assay [6] is > 53 µM (inactive). Turning to `CN1CCCN(Cc2ccccc2C(F)(F)F)CC1`, the IC50 in assay [4] was 83.3 µM (active).

For the molecule `O=C(C[n+]1cccc(C(=O)Nc2ccccc2)c1)c1ccc([N+](=O)[O-])cc1`, in [1], the EC50 is 64.6 µM (active). As for `CCOc1cc(/C=C2\CCCc3c2nc2ccccc2c3C(=O)O)ccc1OC`, the EC50 in [1] was > 260 µM (inactive). Consider `Oc1ccc(C2=CSC3=NCCN23)cc1O`, for which the EC50 is 70.6 µM (active) in [2] and 18.6 µM (active) in [3]. For `CCc1ccccc1N=C(S)NCC1CCN(c2ccc(OC)cc2)C1` (configuration not stated), the IC50 in [4] is 43.3 µM (active). For `Cn1cc(S(=O)(=O)Nc2ccc(Br)cc2F)c(=O)n(C)c1=O`, in assay [5], the IC50 was > 47.1 µM (inactive). Also, in assay [6], the EC50 is > 53 µM (inactive). For the molecule `COc1cc(/C=C/C(=O)OCC(=O)N2CC3(C)CC2CC(C)(C)C3)ccc1O` (configuration not stated), the IC50 in [4] was 49.6 µM (active). In the case of `COc1ccc(-n2c(NNC(C)=O)nc3sc4c(c3c2=O)CCCC4)cc1`, the EC50 in assay [2] and in assay [3] was > 300 µM (not active) throughout. Consider `CCCn1cc2c3c(cccc31)C1CC(C)CN(C)C1C2` (configuration not stated), for which the EC50 in [2] was 36 µM (active); in assay [3], 29.6 µM (active). With `N#Cc1c(-c2ccccc2)cc(-c2ccccc2)nc1SCC(=O)NCC(=O)O`, the EC50 in assay [6] was 12.2 µM (active). Turning to `Cc1ccc(CNc2c(C=O)c(O)nc3ccccc23)cc1`, the EC50 in assay [1] is > 260 µM (inactive). For the molecule `CCOc1ccc(CN2CCN(S(=O)(=O)c3ccc(NC(C)=O)cc3)CC2)cc1`, the IC50 in assay [4] was 221 µM (active). `Cc1c(OCC(=O)NCCCn2ccnc2)ccc2c3c(c(=O)oc12)CCCC3`: the EC50 in assay [1] is > 260 µM (inactive). Take `COC(=O)C12CCc3c(ccc4cc(OC)ccc34)C1=CC(=O)C2` (configuration not stated): in [5], the IC50 is > 47.1 µM (inactive). Further, the EC50 in assay [6] is > 53 µM (inactive).

Consider `COc1ccc(C2CC(c3ccc(Br)cc3)=NN2C(=O)CCC(=O)O)cc1OC` (configuration not stated), for which the IC50 in assay [5] is > 47.1 µM (inactive). In addition, the EC50 in assay [6] is > 53 µM (inactive).

`O=C(O)CCC(=O)Nc1ccc(Br)c(Cl)c1`: the IC50 in assay [5] is < 0.368 µM (active). For the same molecule, in assay [6], the EC50 was > 53 µM (inactive).

Regarding `Cc1cc(C)nc(NNC2=CC(=O)CC(C)(C)C2)n1`, the EC50 in assay [2] was 84.6 µM (active); in assay [3], 10.9 µM (active). `CCOc1cc(/C=N/NC(=O)NN(C)c2ncc(C(F)(F)F)cc2Cl)ccc1O`: the IC50 in assay [4] is 88.4 µM (active). On to `Cc1ccccc1-c1nc2ccccc2c(=O)n1/N=C/c1ccccc1[N+](=O)[O-]`, for which the EC50 in “cells [7]” and in the assay “cells [8]” was > 350 µM (not active) each time.
